The test has as its system Rhipicephalus sanguineus nymphs. Kind of test: Activity in vivo against Rhipicephalus sanguineus nymphs on Mongolian gerbils (spray application). As to conditions: Dose 100 mg/kg, tick number reduction vs placebo (Abbot's formula), 7 days after infestation. The procedure:
3. Activity In Vivo Against Rhipicephalus sanguineus Nymphs on Mongolian Gerbils (Meriones unguiculatus) (Spray Application) On day 0, gerbils are treated with the test compound at a given dose by spray application. On day +1, the animals are infested with nymphs of R. sangineus. Ticks are left on the animals until full repletion. Seven days after infestation nymphs dropped off fully engorged are collected and counted. Efficacy in killing is expressed as a tick number reduction in comparison with a placebo treated group using the Abbot's formula.
Consider `FC(F)(F)C1(c2cc(Cl)cc(Cl)c2)CC(c2ccc(-c3cn(Cc4ccccn4)nn3)c3ccccc23)=NO1` (stereo not drawn) [Compound 1.27, 2-(4-{4-[5-(3,5-dichloro-phenyl)-5-trifluoromethyl-4,5-dihydro-isoxazol-3-yl]-naphthalen-1-yl}-[1,2,3]triazol-1-ylmethyl)-pyridine], for which the “Efficacy (%)” value is given as 79%.
Consider `FC(F)(F)C1(c2cc(Cl)cc(Cl)c2)CC(c2ccc(-n3cncn3)c3ccccc23)=NO1` (stereo not drawn) [Compound 1.1, 1-{4-[5-(3,5-dichloro-phenyl)-5-trifluoromethyl-4,5-dihydro-isoxazol-3-yl]-naphthalen-1-yl}-1H-[1,2,4]triazole], for which the “Efficacy (%)” value is 85%.
With `O=C(NCc1cn(-c2ccc(C3=NOC(c4cc(Cl)cc(Cl)c4)(C(F)(F)F)C3)c3ccccc23)nn1)c1ccncc1` (stereo not drawn) [Compound 1.61, N-(1-{4-[5-(3,5-dichloro-phenyl)-5-trifluoromethyl-4,5-dihydro-isoxazol-3-yl]-naphthalen-1-yl}-1H-[1,2,3]triazol-4-ylmethyl)-isonicotinamide] the figure was 96%.
